Test results from the NIST ThermoML archive (doi:10.1016/j.jct.2019.04.017).
± gives the expanded uncertainty stated by the source.

Assay: xn = mol fraction of the nth substance listed
Conditions: 96 kPa, Liquid; for electrical conductivity: Frequency=0.001 MHz, Alternating current cell with electrodes; for viscosity: Cone and plate viscometry

C1CCC2=NCCCN2CC1 [1,8-diaza-7-bicyclo[5.4.0]undecene] + OCC(O)CO
Conditions | electrical conductivity, 308.1 K [S/m] | electrical conductivity, 313.1 K [S/m] | electrical conductivity, 318.1 K [S/m] | electrical conductivity, 323.1 K [S/m] | electrical conductivity, 328.1 K [S/m] | viscosity, 318.1 K [mPa·s] | viscosity, 328.1 K [mPa·s]
x1 = 0.0501 | – | – | – | – | – | 294.1 ± 25 | 152.2 ± 11
x1 = 0.0502 | – | 0.0666 ± 0.0026 | 0.0795 ± 0.0032 | 0.0955 ± 0.0038 | 0.11 ± 0.0043 | – | –
x1 = 0.0909 | – | – | – | – | – | 345.9 ± 30 | 175 ± 13
x1 = 0.0914 | – | 0.0785 ± 0.0031 | 0.0971 ± 0.0039 | 0.118 ± 0.0047 | 0.132 ± 0.0052 | – | –
x1 = 0.1 | – | – | 0.0947 ± 0.0042 | – | 0.132 ± 0.0058 | 343 ± 30 | 177.4 ± 13
x1 = 0.1115 | 0.0567 ± 0.0022 | 0.0761 ± 0.003 | 0.0924 ± 0.0037 | 0.107 ± 0.0043 | 0.129 ± 0.0051 | – | –
x1 = 0.1266 | 0.0543 ± 0.0022 | 0.0699 ± 0.0028 | 0.0877 ± 0.0035 | 0.101 ± 0.004 | 0.126 ± 0.005 | – | –
x1 = 0.1667 | – | – | – | – | – | 359.5 ± 32 | 182.5 ± 14
x1 = 0.1672 | 0.0468 ± 0.0019 | 0.0613 ± 0.0024 | 0.0735 ± 0.0029 | 0.0882 ± 0.0035 | 0.103 ± 0.0041 | – | –
x1 = 0.2 | 0.0398 ± 0.0016 | 0.0497 ± 0.002 | 0.0601 ± 0.0024 | 0.071 ± 0.0028 | 0.0859 ± 0.0034 | 370.7 ± 33 | 184.3 ± 14
x1 = 0.2153 | – | – | – | – | – | 376.5 ± 34 | 186.8 ± 14
x1 = 0.2306 | – | – | – | – | – | 355.8 ± 31 | 177.8 ± 13
x1 = 0.2504 | 0.0263 ± 0.001 | 0.0335 ± 0.0013 | 0.041 ± 0.0016 | 0.0491 ± 0.0019 | 0.0585 ± 0.0023 | – | –
x1 = 0.287 | 0.0194 ± 0.00077 | 0.0245 ± 0.00097 | 0.0303 ± 0.0012 | 0.0358 ± 0.0014 | 0.0432 ± 0.0017 | – | –
x1 = 0.3059 | – | – | – | – | – | 341.7 ± 30 | 159.5 ± 12
x1 = 0.3333 | – | – | – | – | – | 316.5 ± 27 | 155 ± 11
x1 = 0.3338 | 0.0137 ± 0.00054 | 0.0158 ± 0.00063 | 0.0192 ± 0.00076 | 0.0233 ± 0.00092 | 0.0271 ± 0.0011 | – | –
x1 = 0.4003 | 0.00571 ± 0.00023 | 0.00702 ± 0.00028 | 0.00895 ± 0.00035 | 0.0107 ± 0.00042 | 0.0131 ± 0.00052 | – | –
x1 = 0.4011 | – | – | – | – | – | 279.6 ± 23 | 138.5 ± 10
x1 = 0.5 | 0.00128 ± 5.1e-05 | 0.00169 ± 6.7e-05 | 0.00221 ± 8.8e-05 | 0.00279 ± 0.00011 | 0.00347 ± 0.00014 | 223.8 ± 18 | 105.4 ± 7.4
x1 = 0.5632 | – | – | – | – | – | 169.8 ± 13 | 83.62 ± 5.7
x1 = 0.5656 | 0.000502 ± 2e-05 | 0.000644 ± 2.5e-05 | 0.000939 ± 3.7e-05 | 0.00113 ± 4.5e-05 | 0.0015 ± 5.9e-05 | – | –
x1 = 0.625 | – | – | – | – | – | 109 ± 7.7 | 57.48 ± 3.8
x1 = 0.6255 | 0.000251 ± 9.9e-06 | 0.00034 ± 1.3e-05 | 0.000466 ± 1.8e-05 | 0.000604 ± 2.4e-05 | 0.0008 ± 3.2e-05 | – | –
x1 = 0.75 | 0.000346 ± 1.5e-05 | – | 0.000559 ± 2.5e-05 | – | 0.000826 ± 3.7e-05 | 43.75 ± 2.9 | 26.15 ± 1.7
x1 = 0.753 | 0.000346 ± 1.4e-05 | 0.000447 ± 1.8e-05 | 0.000559 ± 2.2e-05 | 0.000667 ± 2.6e-05 | 0.000826 ± 3.3e-05 | – | –
x1 = 0.8333 | 0.000614 ± 2.7e-05 | – | 0.00087 ± 3.9e-05 | – | 0.00115 ± 5.1e-05 | 20.71 ± 1.4 | 13.46 ± 0.87
x1 = 0.8334 | 0.000614 ± 2.4e-05 | 0.00076 ± 3e-05 | 0.00087 ± 3.4e-05 | 0.00102 ± 4e-05 | 0.00115 ± 4.5e-05 | – | –
x1 = 0.9094 | 0.000788 ± 3.1e-05 | 0.000915 ± 3.6e-05 | 0.00101 ± 4e-05 | 0.00111 ± 4.4e-05 | 0.0012 ± 4.8e-05 | – | –
x1 = 0.95 | 0.000791 ± 3.1e-05 | 0.000857 ± 3.4e-05 | 0.000949 ± 3.8e-05 | 0.00104 ± 4.1e-05 | 0.00112 ± 4.4e-05 | – | –
x1 = 0.975 | 0.000668 ± 2.6e-05 | 0.000719 ± 2.9e-05 | 0.000789 ± 3.1e-05 | 0.000841 ± 3.3e-05 | 0.000928 ± 3.7e-05 | – | –
x1 = 1 | 0.00032 ± 1.3e-05 | 0.000356 ± 1.4e-05 | 0.000382 ± 1.5e-05 | 0.000423 ± 1.7e-05 | 0.000444 ± 1.8e-05 | 6.08 ± 0.39 | 4.91 ± 0.32
